Patent US20230160909A1, “NOVEL ION CONDUCTING CHANNEL FUSION SUBUNITS AND METHODS OF USE THEREOF” (UNIVERSITE DE BORDEAUX, priority 2020, published 2023)

Legend:
Assay type in all cases: cell-based
TRPV1 channel = biological target: T1, TRPV1 channel (Homo sapiens, UniProt Q8NER1); assay: hTRPV1-nLuc-Calflux-YFP (or mNeonGreen) BRET probe in HEK293T cells
T1 construct: expressed in transfected cells; host or cells: HEK293T

TRPV1 ion channel = biological target: T2, TRPV1 ion channel (Homo sapiens, UniProt Q8NER1); assay: mNeonGreen-Calflux-nLuc-hTRPV1 BRET biosensor in HEK293T cells; conditions: for inhibition of CAPS-induced BRET increase: FIG. 8C/8E
T2 construct: expressed in transfected cells; host or cells: HEK293T
T2 sequence (Q8NER1 whole entry): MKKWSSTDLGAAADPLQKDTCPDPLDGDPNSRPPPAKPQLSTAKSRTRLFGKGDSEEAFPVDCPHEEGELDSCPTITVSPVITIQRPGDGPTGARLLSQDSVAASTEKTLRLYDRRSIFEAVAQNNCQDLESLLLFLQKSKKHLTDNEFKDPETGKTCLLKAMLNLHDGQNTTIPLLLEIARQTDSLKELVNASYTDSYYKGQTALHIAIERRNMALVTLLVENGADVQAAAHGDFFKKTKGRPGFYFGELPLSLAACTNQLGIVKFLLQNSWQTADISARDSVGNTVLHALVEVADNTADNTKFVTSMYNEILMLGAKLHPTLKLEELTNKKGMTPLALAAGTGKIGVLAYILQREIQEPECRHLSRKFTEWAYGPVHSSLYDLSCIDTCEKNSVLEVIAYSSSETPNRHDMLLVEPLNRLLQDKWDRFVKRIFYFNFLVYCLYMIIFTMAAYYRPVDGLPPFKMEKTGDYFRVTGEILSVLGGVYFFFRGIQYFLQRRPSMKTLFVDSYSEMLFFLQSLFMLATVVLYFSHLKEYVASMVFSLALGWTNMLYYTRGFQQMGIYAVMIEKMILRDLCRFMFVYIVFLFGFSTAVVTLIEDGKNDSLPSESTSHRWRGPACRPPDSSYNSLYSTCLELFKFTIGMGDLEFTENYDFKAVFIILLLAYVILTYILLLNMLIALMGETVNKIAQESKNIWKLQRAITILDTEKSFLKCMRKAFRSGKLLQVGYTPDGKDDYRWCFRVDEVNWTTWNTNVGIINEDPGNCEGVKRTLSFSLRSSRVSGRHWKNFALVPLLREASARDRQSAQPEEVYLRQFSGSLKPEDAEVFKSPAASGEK

TREK1 = biological target: T3, TREK1 (Homo sapiens, UniProt O95069); assay: mNeon-KBP-nLuc-TREK1 BRET probe in HEK293T cells; conditions: repeated activation with increasing quantities, FIG. 10A
T3 construct: expressed in transfected cells; host or cells: HEK293T
T3 sequence (O95069 1-426): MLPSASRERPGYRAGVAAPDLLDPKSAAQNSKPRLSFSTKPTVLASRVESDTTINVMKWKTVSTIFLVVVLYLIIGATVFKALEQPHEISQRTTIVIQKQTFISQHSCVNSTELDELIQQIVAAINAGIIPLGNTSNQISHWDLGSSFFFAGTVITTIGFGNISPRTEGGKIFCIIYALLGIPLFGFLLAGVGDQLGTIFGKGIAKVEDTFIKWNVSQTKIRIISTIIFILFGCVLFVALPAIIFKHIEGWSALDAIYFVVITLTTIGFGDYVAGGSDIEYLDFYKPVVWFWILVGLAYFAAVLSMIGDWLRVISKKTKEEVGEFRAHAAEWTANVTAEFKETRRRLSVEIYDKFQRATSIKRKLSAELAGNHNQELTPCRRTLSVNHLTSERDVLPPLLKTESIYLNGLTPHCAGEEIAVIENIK
Excerpt: (§1) B) Kinetic measurement of the effect of KCl injection on the BRET measured from HEK293T cells transiently expressing mNeon-Calflux-nLuc-KiR6.1 BRET probe. C) Kinetic measurement of the effect of Deltamethrine injection on the BRET measured from HEK293T cells transiently expressing mNeon-SOFI-nLuc-NaV1.8 BRET probe.
(§2) TREK1 BRET probe was activated using the chemical activator BL1249. Kir6.1 BRET probe was activated using KCl. Following depolarization, a strong outward potassium current is known to occur in HEK293T cells. Extracellular potassium ions would therefore be expected to re-enter the cells through ectopically-expressed inward rectifying ion channels such as KiR6.1, thereby increasing the local concentration of potassium in the intracellular vicinity of the KiR ion channel. NaV1.8 was activated in the presence of Deltamethrin, a pyrethroid toxin that is known to prolong the open state of tetrodotoxin-resistant sodium channels. […] While surprising, this observation could nonetheless be explained knowing that TREK1 trigger hyperpolarisation of the cell membrane by allowing potassium to leak outside cells, thus lowering the intracellular potassium concentration which will tend to balance with the extracellular potassium concentration. In that conditions, it has been shown that potassium will inwardly flow through TREK1 opened pore, which is in line with our observations.

NaV1.8 = biological target: T4, NaV1.8 (Homo sapiens, UniProt Q9Y5Y9); assay: mNeon-SOFI-nLuc-NaV1.8 BRET probe in HEK293T cells; conditions: FIG. 10C
T4 construct: expressed in transfected cells; host or cells: HEK293T
Excerpt: as §1, §2

TRPV4 = biological target: T5, TRPV4 (Homo sapiens, UniProt Q9HBA0); assay: mNeonGreen-Calflux-nLuc-hTRPV4 BRET probe in HEK293T cells
T5 construct: expressed in transfected cells; host or cells: HEK293T
T5 sequence (Q9HBA0 whole entry): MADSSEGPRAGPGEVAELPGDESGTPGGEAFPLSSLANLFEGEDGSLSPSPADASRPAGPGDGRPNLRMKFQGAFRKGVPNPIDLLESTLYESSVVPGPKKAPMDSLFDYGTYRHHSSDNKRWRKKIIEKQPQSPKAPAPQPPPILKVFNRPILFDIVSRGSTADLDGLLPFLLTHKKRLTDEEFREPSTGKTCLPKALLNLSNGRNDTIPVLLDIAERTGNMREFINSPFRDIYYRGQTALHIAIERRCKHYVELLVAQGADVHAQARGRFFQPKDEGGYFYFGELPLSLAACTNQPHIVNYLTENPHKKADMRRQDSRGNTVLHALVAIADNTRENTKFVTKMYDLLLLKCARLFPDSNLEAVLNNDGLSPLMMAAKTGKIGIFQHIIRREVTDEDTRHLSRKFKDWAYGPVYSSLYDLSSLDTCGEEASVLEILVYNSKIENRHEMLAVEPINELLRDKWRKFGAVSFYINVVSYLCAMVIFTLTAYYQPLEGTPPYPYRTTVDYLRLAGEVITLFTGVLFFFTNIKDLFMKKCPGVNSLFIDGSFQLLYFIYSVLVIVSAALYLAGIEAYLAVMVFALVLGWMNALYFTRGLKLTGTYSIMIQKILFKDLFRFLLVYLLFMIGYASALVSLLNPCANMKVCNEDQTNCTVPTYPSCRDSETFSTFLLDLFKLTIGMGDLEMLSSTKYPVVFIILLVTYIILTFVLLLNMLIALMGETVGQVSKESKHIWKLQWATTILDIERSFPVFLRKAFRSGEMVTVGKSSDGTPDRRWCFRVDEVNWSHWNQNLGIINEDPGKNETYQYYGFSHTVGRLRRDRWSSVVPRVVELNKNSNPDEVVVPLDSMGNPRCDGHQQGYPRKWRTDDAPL
Protocol: (§3) B) Dose response curve of the TRPM8 agonist WS12 to trigger activation of the mNeon-Calflux-nLuc-hTRPM8 BRET probe transiently expressed in HEK293T cells that were pre-treated or not with 10 μM of the TRPM8 antagonist M8B hydrochloride. C) Dose response curve of the PIEZO1 agonist YODA1 to trigger activation of the mNeon-Calflux-nLuc-PIEZO1 BRET probe transiently expressed in HEK293T cells. Data represent the average of at least three independent experiments.
(§4) As described above in Examples 7 and 8, the intramolecular BRET biosensor probes hTRPM8-nLuc-Calflux-mGreen and hTRPV4-nLuc-Calflux-mGreen have been prepared wherein the DNA sequence encoding the human protein TRPM8 is fused in C-terminal to a calflux-based calcium BRET sensor, said sensor being sandwiched between the nano luciferase and mNeonGreen. In an effort to exemplify and validate the concept of Calcium sensor-based BRET probes fused to other ion channels, we first assessed whether the activity of two other TRPs ion channels, TRPV4 and TRPM8, could also be measured using such BRET probes. […] The measured half-maximal responses were consistent with those reported in the literature using patch-clamp or calcium-flux measurements on cells transiently expressing TRPV4 or TRPM8.

KiR6.1 = biological target: T6, KiR6.1 (Homo sapiens, UniProt Q15842); assay: mNeon-KBP-nLuc-KiR6.1 BRET probe in HEK293T cells; conditions: KCl depolarisation, FIG. 10B
T6 construct: expressed in transfected cells; host or cells: HEK293T
T6 sequence (Q15842 1-424): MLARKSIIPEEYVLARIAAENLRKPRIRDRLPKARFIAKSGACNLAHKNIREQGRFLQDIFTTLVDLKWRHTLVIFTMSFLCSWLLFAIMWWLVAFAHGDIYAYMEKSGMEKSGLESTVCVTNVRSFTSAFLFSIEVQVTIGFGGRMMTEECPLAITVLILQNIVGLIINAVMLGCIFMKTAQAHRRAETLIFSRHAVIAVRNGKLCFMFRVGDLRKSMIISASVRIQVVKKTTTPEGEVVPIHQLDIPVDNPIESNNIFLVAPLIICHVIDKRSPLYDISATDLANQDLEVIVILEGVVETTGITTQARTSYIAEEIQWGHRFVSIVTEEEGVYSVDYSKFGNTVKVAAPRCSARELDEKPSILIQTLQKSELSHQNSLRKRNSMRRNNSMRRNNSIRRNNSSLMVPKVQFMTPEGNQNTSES
Excerpt: […] C) Kinetic measurement of the effect of Deltamethrine injection on the BRET measured from HEK293T cells transiently expressing mNeon-SOFI-nLuc-NaV1.8 BRET probe.
as §2

TRPM8 = biological target: T7, TRPM8 (Homo sapiens, UniProt Q7Z2W7); assay: mNeonGreen-Calflux-nLuc-hTRPM8 BRET probe in HEK293T cells
T7 construct: expressed in transfected cells; host or cells: HEK293T
T7 sequence (Q7Z2W7 whole entry): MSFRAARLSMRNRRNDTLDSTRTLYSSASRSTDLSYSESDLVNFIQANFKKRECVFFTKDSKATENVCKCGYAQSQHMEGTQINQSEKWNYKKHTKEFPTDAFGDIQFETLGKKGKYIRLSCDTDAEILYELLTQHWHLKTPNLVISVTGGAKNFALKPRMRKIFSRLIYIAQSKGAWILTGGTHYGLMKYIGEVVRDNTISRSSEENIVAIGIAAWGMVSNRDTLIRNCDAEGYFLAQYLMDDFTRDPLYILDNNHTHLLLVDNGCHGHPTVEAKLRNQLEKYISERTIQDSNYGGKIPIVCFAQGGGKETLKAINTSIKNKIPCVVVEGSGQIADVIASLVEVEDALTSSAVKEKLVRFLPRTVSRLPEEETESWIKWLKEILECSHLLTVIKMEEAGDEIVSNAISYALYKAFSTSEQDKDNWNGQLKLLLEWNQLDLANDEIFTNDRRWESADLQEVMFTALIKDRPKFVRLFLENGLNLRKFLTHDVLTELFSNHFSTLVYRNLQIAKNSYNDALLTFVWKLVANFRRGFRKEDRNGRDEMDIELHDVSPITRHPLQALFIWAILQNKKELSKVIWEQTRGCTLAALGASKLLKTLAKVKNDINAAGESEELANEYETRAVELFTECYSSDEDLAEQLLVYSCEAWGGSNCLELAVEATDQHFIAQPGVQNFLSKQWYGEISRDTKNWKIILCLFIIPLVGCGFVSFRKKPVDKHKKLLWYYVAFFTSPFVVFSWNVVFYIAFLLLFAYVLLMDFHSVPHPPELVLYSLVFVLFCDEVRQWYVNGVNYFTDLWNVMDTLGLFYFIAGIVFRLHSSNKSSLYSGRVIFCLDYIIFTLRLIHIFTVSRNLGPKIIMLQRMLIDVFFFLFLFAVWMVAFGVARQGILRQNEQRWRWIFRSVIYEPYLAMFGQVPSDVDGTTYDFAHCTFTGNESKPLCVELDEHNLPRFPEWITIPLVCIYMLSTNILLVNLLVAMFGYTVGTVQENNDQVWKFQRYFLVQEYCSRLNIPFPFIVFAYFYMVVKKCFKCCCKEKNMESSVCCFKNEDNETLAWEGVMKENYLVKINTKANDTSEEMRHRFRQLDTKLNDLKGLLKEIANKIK
Protocol: as §3, §4

[1] = biological target: T8, NR1-nLuc-Calflux-YFP/NR2B ion channels (NMDA receptors) (Homo sapiens, UniProt Q05586+Q13224); assay: NR1-nLuc-Calflux-YFP BRET probe coexpressed with NR2B in HEK293T cells; conditions: read-out: EC50 of activation of NR1-nLuc-Calflux-YFP/NR2B
T8 construct: expressed in transfected cells; host or cells: HEK293T
T8 sequence (Q13224 27-1484, other chains not shown): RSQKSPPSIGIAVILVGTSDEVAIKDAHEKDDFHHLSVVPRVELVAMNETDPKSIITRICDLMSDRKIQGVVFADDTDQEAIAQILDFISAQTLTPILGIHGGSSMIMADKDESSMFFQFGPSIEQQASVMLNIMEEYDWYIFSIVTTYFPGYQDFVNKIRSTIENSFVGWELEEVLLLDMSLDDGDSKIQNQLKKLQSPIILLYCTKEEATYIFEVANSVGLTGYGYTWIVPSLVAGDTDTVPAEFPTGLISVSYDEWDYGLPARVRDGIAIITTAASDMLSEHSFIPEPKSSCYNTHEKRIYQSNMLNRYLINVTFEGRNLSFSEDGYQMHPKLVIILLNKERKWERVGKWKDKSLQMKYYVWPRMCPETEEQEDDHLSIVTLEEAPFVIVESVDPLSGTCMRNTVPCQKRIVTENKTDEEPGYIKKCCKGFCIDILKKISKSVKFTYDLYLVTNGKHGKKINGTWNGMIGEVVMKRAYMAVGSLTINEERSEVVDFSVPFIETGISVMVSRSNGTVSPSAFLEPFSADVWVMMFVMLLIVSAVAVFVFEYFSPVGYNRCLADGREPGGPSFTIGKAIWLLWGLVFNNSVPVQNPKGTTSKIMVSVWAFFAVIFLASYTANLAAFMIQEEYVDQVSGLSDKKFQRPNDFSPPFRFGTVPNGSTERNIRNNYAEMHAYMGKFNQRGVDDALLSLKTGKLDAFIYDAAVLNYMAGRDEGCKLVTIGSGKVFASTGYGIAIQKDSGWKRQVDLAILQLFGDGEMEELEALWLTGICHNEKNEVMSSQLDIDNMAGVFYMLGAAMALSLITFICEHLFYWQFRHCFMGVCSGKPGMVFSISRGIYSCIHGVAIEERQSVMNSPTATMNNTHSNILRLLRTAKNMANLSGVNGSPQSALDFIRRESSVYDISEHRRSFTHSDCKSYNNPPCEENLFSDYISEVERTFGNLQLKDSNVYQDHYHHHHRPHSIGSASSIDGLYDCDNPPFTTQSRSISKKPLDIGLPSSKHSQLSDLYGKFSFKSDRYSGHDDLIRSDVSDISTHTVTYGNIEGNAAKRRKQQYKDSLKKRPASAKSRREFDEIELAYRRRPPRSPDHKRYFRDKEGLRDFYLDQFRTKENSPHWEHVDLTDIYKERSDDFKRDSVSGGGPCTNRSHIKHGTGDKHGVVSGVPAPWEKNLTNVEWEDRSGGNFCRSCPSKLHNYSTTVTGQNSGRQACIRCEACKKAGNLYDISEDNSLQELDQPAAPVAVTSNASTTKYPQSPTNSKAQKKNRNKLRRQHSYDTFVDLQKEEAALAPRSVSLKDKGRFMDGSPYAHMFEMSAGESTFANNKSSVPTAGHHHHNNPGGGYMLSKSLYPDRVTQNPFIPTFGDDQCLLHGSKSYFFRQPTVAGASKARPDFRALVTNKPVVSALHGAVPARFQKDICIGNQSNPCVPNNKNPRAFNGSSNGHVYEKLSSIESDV
Excerpt: (§5) FIG. 7: Dose-response for NMDA as measured in HEK293T cells transiently expressing the NR1-nLuc-Calflux-YFP probe alone (A) or coexpressed with NR2A (B) or NR2B (C) subunits.
(§6) We have constructed a novel BRET probe allowing to measure the activity of NMDA receptors by coupling the cDNA of the NR1 subunit to the BRET sensor nLuc-Calflux-YFP (FIG. 7). NMDA receptors are heterotetramers comprising 2 NR1 subunits and 2 NR2 or NR3 subunits. The subunits NR1, NR2 or NR3 expressed separately cannot form functional receptors.

NR1 subunit = biological target: T9, NR1 subunit (Homo sapiens, UniProt Q05586); assay: NR1-nLuc-Calflux-YFP BRET probe expressed alone in HEK293T cells; conditions: increasing dose, FIG. 7A
T9 construct: expressed in transfected cells; host or cells: HEK293T
Excerpt: as §5, §6

PIEZO1 channel = biological target: T10, PIEZO1 channel (Homo sapiens, UniProt Q92508); assay: mNeonGreen-Calflux-nLuc-PIEZO1 BRET probe in HEK293T cells; conditions: FIG. 9C
T10 construct: expressed in transfected cells; host or cells: HEK293T
Protocol: as §3
This confirms the functionality of our calcium sensor-based BRET Probe targeting PIEZO1.

[2] = system: potassium channel SK3 (KCa2.3); assay: SK3-nLuc-KBP-mNeonGreen BRET probe in HEK293T cells; conditions: different concentrations, FIG. 5B
Excerpt: FIG. 5: is a schematic representation of the SK3-nLuc-KBP-mNeonGreen probe (A) and the measure of BRET signal as obtained during the activation of the channel in presence of lonomycine (B).
The novel BRET probe has been constructed to measure the activity of potassium channel SK3 (KCa2.3) by coupling the cDNA of the SK3 channel to a potassium sensor (protein KBP, Ashrafet KU al., 2016, Structure 24, 741-749) sandwiched in between luciferase and mNeonGreen (SK3-nLuc-KBP-mNeonGreen, See FIG. 5A).
The BRET sensor is based on KBP which has been published (Bischof H et al, 2017, Nat Commun. 8(1):1422), but this sensor was never coupled to a channel in order to specifically measure the activity of the channel as presented in this invention.

[3] = HEK293T cells pre-treated with 10 μM antagonist

T1 sequence (Q8NER1 whole entry): as the sequence (Q8NER1 whole entry) above

`CC(=O)Nc1nc2c(Oc3cc(-c4ccc(C(F)(F)F)cc4)ncn3)cccc2s1` [AMG517] was tested, and the “effect on dose-response to CAPS (antagonism)” value (TRPV1 channel; FIG. 4A) was “shifted the dose-response to CAPS to the right” and the “inhibition of CAPS-induced BRET increase” value (TRPV1 ion channel) was “inhibited the CAPS-induced BRET increase”.

In the case of `c1ccc(-c2nn[nH]n2)c(Nc2cccc3c2CCCC3)c1` [BL1249], the “change of basal BRET” value (TREK1) is reported as “dose-dependently increased the basal BRET”.

With `COc1cc(CNC(=O)CCCC/C=C/C(C)C)ccc1O` [CAPS, Capsaïcin] the “change of basal BRET after exposure” value (TRPV1 ion channel; kinetic measurement, FIG. 8A) was “dramatically increased with first-order kinetics”.

In the case of `CC1(C)[C@H](C(=O)O[C@H](C#N)c2cccc(Oc3ccccc3)c2)[C@@H]1C=C(Br)Br` [Deltamethrin], the “change of BRET signal” value (NaV1.8) is reported as “decrease of the BRET signal”.

`CC(C)C[C@H](NC(=O)c1cc2ccccc2s1)C(=O)N1CCN(C(=O)[C@H](CO)NS(=O)(=O)c2ccc(Cl)cc2Cl)CC1` [GSK1016790A] was tested, and the “change of BRET signal by agonist” value (TRPV4; HEK293T cells, FIG. 9A) was “dose-dependently increased”.

For `Cc1c(C(=O)Nc2cccc(C(F)(F)F)c2)cc(-c2ccccc2)n1CCCN1CCOCC1` [HC060747], the “effect on agonist (GSK1016790A) potency” value (TRPV4; [3]) was “right-shifted the corresponding agonist potency to higher values”.

For `[Cl-].[K+]` [KCl], the “change of BRET signal” value (KiR6.1) was “increase of the BRET signal”.

For `COc1cc(CN(CCN)C(=O)c2cccs2)ccc1OCc1ccccc1.Cl` [MBB], the “effect on agonist (WS12) potency” value (TRPM8; [3]) was “right-shifted the corresponding agonist potency to higher values”.

For `CN[C@H](CC(=O)O)C(=O)O` [NMDA, N-methyl-D-aspartate], the EC50 [1] was 12.3 µM and the “modulation of BRET signal, NR1 probe alone” value (NR1 subunit) was “not modulated”.

`CC(C)NCCN(C(C)C)S(=O)(=O)c1ccc(Cl)cc1Cl` [RN1734] was tested, and the “inhibition of CAPS-induced BRET increase” value (TRPV1 ion channel) was “failed to inhibit”.

For `COc1ccc(NC(=O)[C@@H]2C[C@H](C)CC[C@H]2C(C)C)cc1` [WS12], the “change of BRET signal by agonist” value (TRPM8; HEK293T cells, FIG. 9B) was “dose-dependently increased”.

In the case of `Clc1cccc(Cl)c1CSc1nnc(-c2cnccn2)s1` [YODA1], the “change of BRET signal by agonist” value (PIEZO1 channel) is reported as “dose-dependently increased”.

With `C[C@H](CCC(=O)O)C[C@H](C)C[C@H](C)C(=O)/C=C(\O)[C@H](C)C[C@H](C)C/C=C/[C@@H](C)[C@@H](O)[C@@H](C)[C@@H](O)C[C@@H]1CC[C@@](C)([C@H]2CC[C@@](C)([C@@H](C)O)O2)O1` [ionomycin] the “change of BRET signal on stimulation” value (TRPV1 channel; TRPV1-nLuc-Calflux-YFP/mNeonGreen probe) was “marginal increase” and the “change of BRET signal (potassium efflux)” value [2] was “decrease of the BRET signal”.
